Measurements from publication PMC3842914, “Meleagrin, a New FabI Inhibitor from Penicillium chryosogenum with at Least One Additional Mode of Action” (PLoS ONE, 2013).
pIC50: −log10 of the molar value. In brackets after ≈: the same amount, converted by molar mass. Read-outs that look alike come from different tables or passages of the source.

Columns and labels:
E. coli FabI = target: T1, E. coli FabI (Escherichia coli, UniProt P0AEK4); assay: E. coli FabI enzyme assay (NADH as cofactor); format: biochemical
T1 construct: made in house
Source text: (§1) S. aureus FabI and E. coli FabI enzymes were cloned, overexpressed, and purified as described previously. The wild-type fabK gene was amplified by PCR from genomic DNA obtained from Streptococcus pneumoniae KCTC 5412 by using the primers 5′-[…]-3′ and 5′-[…]-3′, which contained NdeI and XhoI restriction sites, respectively. After the DNA sequence was confirmed, the gene was cloned into the pET22b vector (Novagen, Gibbstown, NJ, USA). The construct was transformed into E. coli BL21 (DE3) for expression following induction with isopropylthiogalactoside. The C-terminal His-tagged protein was purified as described previously. Assays were conducted in half-area, 96-well microtiter plates. The compounds were dissolved in DMSO and evaluated in 100-μL assay mixtures containing components specific for each enzyme (see below). Reduction of the trans-2-octenoyl N-acetylcysteamine (t-o-NAC thioester) substrate analog was measured spectrophotometrically following the utilization of NADH or NADPH at 340 nm at 30°C for the linear period of the assay. S. aureus FabI assays contained 50 mM sodium acetate (pH 6.5), 200 μM t-o-NAC thioester, 200 μM NADPH, and 150 nM S. aureus FabI.
(§2) NADH was used as a cofactor rather than NADPH for the E. coli FabI assay. Substrate concentrations used for the Lineweaver–Burk plot were 100, 200, 300, and 400 μM, whereas the concentrations of the cofactor were 100, 200, 400, and 600 μM. The rate of decrease in the amount of NADPH in each reaction was measured with a microtiter enzyme-linked immunosorbent assay (ELISA) reader by using the SOFTmax PRO software (Molecular Devices, Sunnyvale, CA, USA). The inhibitory activity was calculated according to the following formula: % of inhibition = 100× [1− (rate in the presence of compound/rate in the untreated control)]. IC50 values were calculated by fitting the data to a sigmoid equation. An equal volume of DMSO solvent was used for the untreated control. FabK assays contained 100 mM sodium acetate (pH 6.5), 2% glycerol, 200 mM NH4Cl, 50 µM t-o-NAC thioester, 200 µM NADH, and 150 nM S. pneumoniae FabK.

S. pneumoniae FabK = target: T2, S. pneumoniae FabK (Streptococcus pneumoniae, UniProt Q9FBC5); assay: S. pneumoniae FabK enzyme assay; format: biochemical
T2 sequence (Q9FBC5 1-324): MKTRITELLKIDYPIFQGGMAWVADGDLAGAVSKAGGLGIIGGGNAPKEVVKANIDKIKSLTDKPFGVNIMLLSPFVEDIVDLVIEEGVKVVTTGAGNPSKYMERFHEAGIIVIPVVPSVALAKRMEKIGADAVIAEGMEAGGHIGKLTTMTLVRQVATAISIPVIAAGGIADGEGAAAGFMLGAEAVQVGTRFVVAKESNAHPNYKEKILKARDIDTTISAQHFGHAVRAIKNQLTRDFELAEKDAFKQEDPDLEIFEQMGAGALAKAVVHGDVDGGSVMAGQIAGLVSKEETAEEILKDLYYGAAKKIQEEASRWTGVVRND
Source text: as §1, §2

S. aureus RN4220 = assay: MIC by broth microdilution, S. aureus RN4220 (wild type); format: cell-based, Staphylococcus aureus; conditions: for MIC: Staphylococcus aureus, S. aureus RN4220 (wild type); for Antibacterial activity relative to compound 1: against S. aureus RN4220 and E. coli KCTC 1924
Method: (§3) Whole-cell antimicrobial activity was determined by broth microdilution as described previously. The test strains except for S. pneumoniae were grown to mid-log phase in Mueller–Hinton broth and diluted 1,000-fold in the same medium. Cells (10^5/mL) were inoculated into Mueller–Hinton broth and dispensed at 0.2 mL/well into a 96-well microtiter plate. S. pneumoniae was grown in tryptic soy broth supplemented with 5% sheep blood. MICs were determined in triplicate by serial 2-fold dilutions of test compounds. […] Bacterial growth was determined by measuring the absorption at 650 nm by using a microtiter ELISA reader.

E. coli KCTC 1924 = assay: MIC by broth microdilution, E. coli KCTC 1924; format: cell-based; conditions: Escherichia coli
Method: as §3

[1] = test system: incorporation of [1-14C] acetate into membrane fatty acids in S. aureus; assay: [14C] acetate incorporation into membrane fatty acids in S. aureus; format: cell-based, Staphylococcus aureus; conditions: for pIC50: Staphylococcus aureus, read-out: IC50 [14C] acetate incorporation; for Inhibition of acetate incorporation relative to the less active compounds 1, 3, and 4: [1-14C] acetate into membrane fatty acids in S. aureus
Method: To monitor the effects of compound 1 on lipid, DNA, RNA, protein, and cell wall biosynthesis, its effects on the incorporation of [1-^14C] acetate (50 mCi/mmol), [2-^14C] thymidine (59.8 mCi/mmol), [U-^14C] uridine (539 mCi/mmol), L-[U-^14C] leucine (306 mCi/mmol) or L-[U-^14C] isoleucine (329 mCi/mmol), and N-acetyl-D-[1-^14C] glucosamine (58.1 mCi/mmol) into S. aureus and S. pneumoniae were measured as described previously. S. aureus was exponentially grown to an A650 of 0.2 in Mueller–Hinton broth. S. pneumoniae was grown in tryptic soy broth supplemented with 5% sheep blood. […] An equal volume of DMSO solvent was added to the untreated control. After incubation with the radiolabeled precursors at 37°C for 1 h, followed by centrifugation, the cell pellets were washed twice with PBS buffer. After acetate incorporation, the total cellular lipids were extracted with chloroform-methanol-water. The incorporated radioactivity in the chloroform phase was measured by scintillation counting. For the other precursors, incorporation was terminated by adding 10% (w/v) TCA and cooling on ice for 20 min. The precipitated material was collected on Whatman GF/C glass microfiber filters, washed with TCA and ethanol, dried, and counted using a scintillation counter. […] In all experiments, known antibacterial agents were included as positive controls.
We measured their effects on the incorporation of [1-^14C] acetate into membrane fatty acids in S. aureus.

S. aureus RN4220 (pE194) = assay: Overexpression assay, MIC for vector-containing S. aureus RN4220 (pE194); format: cell-based; conditions: Staphylococcus aureus, read-out: MIC S. aureus (pE194)
Method: as §3
(§4) An overexpression assay using S. aureus RN4220, S. aureus RN4220 (pE194), and S. aureus RN4220 (pE194-fabI) was conducted to perform target validation of FabI inhibitors as described previously. Additionally, both fabI- and fabK-overexpressing E. coli were constructed to test a multitarget effect of the compounds. The wild-type fabI gene from the genomic DNA of E. coli W3110 was amplified by PCR by using the primers 5′-[…]-3′ and 5′-[…]-3′. The wild-type fabK gene from the genomic DNA of S. pneumoniae KCTC 5412 was amplified by PCR by using the primers 5′-[…]-3′ and 5′-[…] […]-3′. The resulting products were cloned into the pBAD-TOPO TA expression vector (Invitrogen, Carlsbad, CA, USA) to yield the pBAD-fabI and pBAD-fabK recombinant plasmids, which placed the expression of the genes fabI and fabK, respectively, under the control of the arabinose promoter. Recombinant pBAD-fabI and pBAD-fabK were then introduced into the pump-negative (tolC) E. coli EW1b via electroporation to generate E. coli EW1b (pBAD-fabI) and E. coli EW1b (pBAD-fabK), respectively.

E. coli EW1b(pBAD) = assay: Overexpression assay, MIC for vector-containing E. coli EW1b (pBAD); format: cell-based; conditions: Escherichia coli
Method: as §3, §4

[2] = KCTC1924, read-out: MIC E. coli
[3] = read-out: MIC E. coli EW1b(pBAD) (+) Ara
[4] = read-out: MIC E. coli EW1b(pBAD) (−) Ara
[5] = KCTC1924, E. coli KCTC 1924, read-out: MIC E. coli
[6] = S. pneumoniae FabK, read-out: IC50 spFabK

T1 sequence (P0AEK4 whole entry): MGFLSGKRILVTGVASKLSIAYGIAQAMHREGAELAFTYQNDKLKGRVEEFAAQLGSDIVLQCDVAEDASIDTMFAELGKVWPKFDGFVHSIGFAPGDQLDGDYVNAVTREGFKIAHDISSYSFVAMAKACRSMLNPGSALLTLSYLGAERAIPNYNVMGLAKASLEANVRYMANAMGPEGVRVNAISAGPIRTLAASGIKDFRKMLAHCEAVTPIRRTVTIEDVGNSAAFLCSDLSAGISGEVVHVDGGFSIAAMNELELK

Molecule `C=CC(C)(C)C12C=C(O)C(=O)N3/C(=C/c4cnc[nH]4)C(=O)NC31N(OC)c1ccccc12` (stereo not drawn) [Compound 1, meleagrin] has a pIC50 (E. coli FabI) of 4.48, a pIC50 (S. pneumoniae FabK) of under 3.70 and an MIC (S. aureus RN4220) of 64 µg/mL (≈ 148 µM). For the same molecule, the MIC (E. coli KCTC 1924; [2]) was 32 µg/mL (≈ 73.8 µM), the pIC50 [1] was 4.39 and the MIC (S. aureus RN4220 (pE194)) was 64 µg/mL (≈ 148 µM). It also gave an MIC (E. coli EW1b(pBAD); [3]) of 32 µg/mL (≈ 73.8 µM) and an MIC (E. coli EW1b(pBAD); [4]) of 32 µg/mL (≈ 73.8 µM).
Work on `C=CC(C)(C)C12C=C(OC)C(=O)N3/C(=C/c4cnc[nH]4)C(=O)NC31N(OC)c1ccccc12` (stereo not drawn) [Compound 3, oxaline] yielded a pIC50 (E. coli FabI) of 4.41, a pIC50 (S. pneumoniae FabK) of under 3.70 and an MIC (S. aureus RN4220) of 64 µg/mL (≈ 143 µM). For the same molecule, the MIC (E. coli KCTC 1924; [5]) was 32 µg/mL (≈ 71.5 µM), the pIC50 [1] was 4.47 and the MIC (S. aureus RN4220 (pE194)) was 64 µg/mL (≈ 143 µM).
`Oc1cc(Cl)ccc1Oc1ccc(Cl)cc1Cl` [Triclosan, reference compound] gave a pIC50 (S. pneumoniae FabK) of under 3.70, an MIC (S. aureus RN4220) of 0.01 µg/mL (≈ 0.0345 µM) and an MIC (E. coli KCTC 1924; KCTC1924, 24 h, read-out: MIC E. coli) of 0.02 µg/mL (≈ 0.0691 µM). The MIC (E. coli KCTC 1924; [2]) was 0.01 µg/mL (≈ 0.0345 µM), the pIC50 [1] was 7.40 and the MIC (S. aureus RN4220 (pE194)) was 0.01 µg/mL (≈ 0.0345 µM). The MIC (E. coli EW1b(pBAD); [3]) was 0.002 µg/mL (≈ 0.00691 µM) and the MIC (E. coli EW1b(pBAD); [4]) was 0.002 µg/mL (≈ 0.00691 µM).
`C=CC(C)(C)C12C=C(OC)C(=O)N3/C(=C/c4cnc[nH]4)C(=O)N(C)C31Nc1ccccc12` (stereo not drawn) [Compound 6, O,N^14-dimethylglandicolin] showed a pIC50 (E. coli FabI) of 4.81, a pIC50 (S. pneumoniae FabK) of under 3.70 and an MIC (S. aureus RN4220) of 16 µg/mL (≈ 37.1 µM). The “Antibacterial activity relative to compound 1” value (S. aureus RN4220) was 2–4 times, the MIC (E. coli KCTC 1924; [2]) was 8 µg/mL (≈ 18.5 µM) and the pIC50 [1] was 4.70. For the same molecule, the “Inhibition of acetate incorporation relative to the less active compounds 1, 3, and 4” value [1] was “approximately 2 fold” and the MIC (S. aureus RN4220 (pE194)) was 16 µg/mL (≈ 37.1 µM).
`C=CC(C)(C)C12C=C(O)C(=O)N3/C(=C/c4cnc[nH]4)C(=O)N(C)C31N(OC)c1ccccc12` (stereo not drawn) [Compound 4, N^14-methylmeleagrin] was tested, and the pIC50 (E. coli FabI) was 4.48, the pIC50 (S. pneumoniae FabK) was under 3.70 and the MIC (S. aureus RN4220) was 64 µg/mL (≈ 143 µM). It also gave an MIC (E. coli KCTC 1924; [2]) of 32 µg/mL (≈ 71.5 µM), a pIC50 [1] of 4.45 and an MIC (S. aureus RN4220 (pE194)) of 64 µg/mL (≈ 143 µM).
Molecule `C=CC(C)(C)C12C=C(OC)C(=O)N3/C(=C/c4cnc[nH]4)C(=O)N(C)C31N(OC)c1ccccc12` (stereo not drawn) [Compound 5, O,N^14-dimethylmeleagrin] has a pIC50 (E. coli FabI) of 4.81, a pIC50 (S. pneumoniae FabK; [6]) of under 3.70 and an MIC (S. aureus RN4220) of 16 µg/mL (≈ 34.7 µM). For the same molecule, the “Antibacterial activity relative to compound 1” value (S. aureus RN4220) was 2–4 times, the MIC (E. coli KCTC 1924; [5]) was 8 µg/mL (≈ 17.3 µM) and the pIC50 [1] was 4.79. The “Inhibition of acetate incorporation relative to the less active compounds 1, 3, and 4” value [1] was “approximately 2 fold”, the MIC (S. aureus RN4220 (pE194)) was 16 µg/mL (≈ 34.7 µM) and the MIC (E. coli EW1b(pBAD); [3]) was 16 µg/mL (≈ 34.7 µM). The MIC (E. coli EW1b(pBAD); [4]) was 16 µg/mL (≈ 34.7 µM).
`C=CC(C)(C)C12C=C(O)C(=O)N3/C(=C/c4cnc[nH]4)C(=O)NC31Nc1c(Br)cccc12` (stereo not drawn) [Compound 7] showed a pIC50 (E. coli FabI) of under 3.70, a pIC50 (S. pneumoniae FabK; [6]) of under 3.70 and an MIC (S. aureus RN4220) of over 128 µg/mL. It also gave an MIC (E. coli KCTC 1924; [5]) of over 128 µg/mL and a pIC50 [1] of under 3.70.
